Laboratory results as given in PMC7029632, “Routing Nanomolar Protein Cargoes to Lipid Raft‐Mediated/Caveolar Endocytosis through a Ganglioside GM1‐Specific Recognition Tag” (Advanced Science, 2020).

Assays:
[1] = cited from earlier work
Description: Helenius and Pelkmans pointed out that multivalent binding/clustering of ganglioside GM1 is necessary to trigger lipid raft‐mediated/caveolar endocytosis,9 and the tetravalent nature of our model carrier–cargo complex is consistent with this observation. On the other hand, the number of copies of the carrier sequence required for endocytosis can be crucial, especially if the carrier–cargo complex is produced by recombinant synthesis. […] CFU‐Penetratin, which has ...

Jurkat cells = test: Uptake in competition with galectin-1, flow cytometry; format: cell-based, human; conditions: only at concentrations orders of magnitude higher than serum galectin-1 level (6.7 nM)
HeLa cells = test: Flow cytometry (FACS) uptake of NA constructs and fluorescently labeled sequences, HeLa; conditions: 1 µM cargo, 1 h, 37 °C, MEM+1% FBS, trypan blue quencher, triplicate
ganglioside GM1 = test: ITC titration with GM1:DPC 1:5 bicelles; conditions: two-independent-binding-site model, pH 7.2 phosphate, 35 °C, read-out: K D toward GM1 (tagged NeutrAvidin)

Row | Substance | affinity for terminal digalactosides [1] | inhibition of GM1–WYKYW interaction by galectin-1 (Jurkat cells) | level of uptake by FACS (HeLa cells) | Kd (ganglioside GM1)
1 | galectin‐1: protein binding terminal digalactosides, used as inhibitor | micromolar affinity | competitive inhibitor of the GM1–WYKYW interaction |  | 
2 | NA(biotinyl‐PEG‐WYKYW)4 [tetravalent FITC-labeled NeutrAvidin construct with biotinyl-PEG-WYKYW] |  |  | similar | 0.0145 ± 0.0017 µM
